What all share (assay type): cell-based
Series [1] can be described thus: Inhibition of PI3K/AKT signalling pathway in human MM121224 cells stably expressing H2B-mTurquoise, ERK-KTR-mScarlet and FoxO3a-KTR-mNeonGreen fluorophore assessed as AKT activity by high-content screening microscopic analysis.
For series [2], the system named is MM121224. Put plainly: Inhibition of PI3K/AKT signalling pathway in human MM121224 cells assessed as downregulation of AKT phosphorylation at Ser473 residue by immunostaining based analysis.
Series [3] relates to MM121224. The experiment in a line: Inhibition of PI3K/AKT signalling pathway in human MM121224 cells stably expressing H2B-mTurquoise, ERK-KTR-mScarlet and FoxO3a-KTR-mNeonGreen fluorophore assessed as AKT activity at 25 uM by high-content screening microscopic analysis.
The nature of series [4]: Toxicity against human MM121224 cells at 50 to 200 uM by high-content screening microscopic analysis. As to conditions: mm121224, 200 µM, dose 50-200 µM.

SMILES strings stand for the structures. The source made the active and inactive calls. No cut-off for these calls is given here.

With `C=C1C(=O)O[C@H]([C@H]2C(=O)C=C[C@@]2(C)O)[C@H]1CCC(C)=O`, the IC50 in series [1] was determined as 38 µM.

For `C=C1C(=O)O[C@H]2[C@H]1[C@@H](OC(=O)C(C)CC)C=C(C)[C@]1(O)C[C@@H](O)[C@@](C)(O)[C@H]21` (stereo partly specified), the IC50 in series [1] was 24.6 µM.

Regarding `C=C1C(=O)O[C@@H]2[C@H]3C(C)=CC(=O)C3=C(C)C[C@H](OC(=O)C(C)CC)[C@@H]12` (stereo partly specified), in series [1], the IC50 was 27.7 µM.

With `C=C1C(=O)O[C@H]2[C@H]1CC[C@@](C)(O)[C@]13O[C@H]1[C@H]1O[C@@]1(C)[C@H]23` [ARTECANIN], in series [1], the concentration for half-maximal inhibition (IC50) was 119 µM.

As to `C=C1C(=O)O[C@@H]2[C@H]3C(C)=CC[C@@H](O)[C@]3(C)CC[C@@H]12` [SANTAMARIN], the IC50 in series [1] worked out at 52.7 µM.

On to `C=C1C(=O)O[C@H]2[C@H]1[C@@H](OC(=O)CC(C)C)CC(=C)[C@]1(O)C[C@H]3O[C@@]3(C)[C@H]21`, for which the IC50 in series [1] is 14.2 µM.

Regarding `C=C1C(=O)O[C@@H]2C3=C(C)C(=O)C[C@@H](O)[C@]3(C)CC[C@@H]12`, the IC50 in series [1] was determined as 11.2 µM. In addition, the inhibition result in series [2] is “Active”.

`C=C1C(=O)O[C@H]2[C@H]1CC[C@@](C)(O)[C@@]13O[C@@H]1[C@@H]1O[C@]1(C)[C@H]23`: the IC50 in series [1] amounted to 38.4 µM.

As for `C=C1C(=O)O[C@H]2[C@H]1[C@@H](OC(=O)C(C)CC)CC(=C)[C@]1(O)C[C@H]3O[C@@]3(C)[C@H]21` (stereo partly specified), in series [1], the IC50 is 14.2 µM.

Consider `C=C1C(=O)O[C@@H]2[C@@H]3[C@@]4(C=C[C@@]3(C)[C@]3(C4)C(=O)O[C@@H]4[C@H]5C(C)=CC(=O)C5=C(C)C[C@H](OC(C)=O)[C@H]43)[C@](C)(O)CC[C@@H]12`, for which the IC50 in series [1] is 35.7 µM. For the same molecule, in series [2], the inhibition entry was “Active”.

In the case of `C=C1C(=O)O[C@H]2[C@H]1[C@@H](OC(C)=O)CC(C)=C1C[C@H]3O[C@@]3(C)[C@@H]12`, the IC50 in series [1] amounted to 25.9 µM.

Regarding `C=C1C(=O)O[C@@H]2[C@H]3C(C)=CC(=O)C3=C(C)C[C@H](OC(=O)/C(C)=C\C)[C@@H]12`, the IC50 in series [1] amounted to 9.8 µM.

In the case of `C=C1C(=O)O[C@H](C2=C(C)[C@H](OC(C)=O)CC2=O)[C@H]1CCC(C)=O`, the IC50 in series [1] came out at 25.1 µM. Besides, in series [2], the inhibition result was “Active”.

In the case of `C=C1C(=O)O[C@@H]2[C@H]3C(C)=CC(=O)C3=C(C)C[C@H](OC(C)=O)[C@@H]12`, the IC50 in series [1] came out at 11 µM.

As for `C=C1C(=O)O[C@@H]2[C@H]3C(C)=CC(=O)C3=C(C)C[C@H](O)[C@@H]12`, the 50% inhibitory concentration (IC50) in series [1] came out at 15.1 µM. Further, the inhibition entry in series [2] was “Active”.

On to `C=C1C(=O)O[C@@H]2[C@@H]3[C@@]4(C=C[C@@]3(C)[C@@]3(C4)C(=O)O[C@@H]4[C@H]5C(C)=CC(=O)C5=C(C)C[C@H](OC(C)=O)[C@H]43)[C@](C)(O)CC[C@@H]12`, for which, in series [1], the IC50 came out at 14.7 µM.

As to `C=C1C(=O)O[C@H]2[C@H]1[C@@H](OC(C)=O)CC(=C)[C@]1(O)C[C@H]3O[C@@]3(C)[C@H]21`, the IC50 in series [1] was found to be 46.2 µM.

`C=C1C(=O)O[C@@H]2[C@H]3C(C)=CC(=O)C3=C(C)CC[C@@H]12` [DEHYDROLEUCODIN]: in series [1], the IC50 was determined as 23.6 µM.

`C=C(C(=O)OC)[C@@H]1CC[C@]2(C)C(=C(C)C(=O)C[C@H]2O)[C@H]1O`: the IC50 in series [1] was found to be 22.1 µM. For the same molecule, the inhibition result in series [2] was “Active”.

For the molecule `C=C1C(=O)O[C@@H]2[C@H]3C(C)=CC(=O)C3=C(C)C[C@H](OC(=O)CC(C)C)[C@@H]12`, the IC50 in series [1] was found to be 15.3 µM.

As to `C=C1C(=O)O[C@@H]2[C@H]3C(C)=CC(=O)C3=C(C)C[C@H](OC(=O)C=C(C)C)[C@@H]12`, the inhibition entry in series [3] and in series [2] was “Active” throughout. For the same molecule, the IC50 in series [1] was 8.9 µM. The Activity result in series [4] is listed as “Toxic”.

Regarding `C=C1C(=O)O[C@H]([C@@H]2C(=O)C=C[C@]2(C)O)[C@H]1CCC(C)=O` [SECOTANAPARTHOLIDE B], in series [1], the half-maximal inhibitory concentration (IC50) amounted to 22.5 µM.

Regarding `C=C1C(=O)O[C@H]2[C@H]1[C@@H](OC(C)=O)C=C(C)[C@]1(O)C[C@H]3O[C@@]3(C)[C@H]21`, the IC50 in series [1] was 22.9 µM.

For `C=C1C(=O)O[C@H]2[C@H]1CC[C@@](C)(O)[C@@]13C=C[C@](C)([C@H]4[C@H](CC(=O)OC)[C@H](C/C=C\CC)C(=O)[C@H]41)[C@H]23`, the half-maximal inhibitory concentration (IC50) in series [1] came out at 27.7 µM. Moreover, the inhibition result in series [2] is “Active”.

For `C=C1C(=O)O[C@H]2[C@H]1[C@@H](OC(=O)CC(C)C)C=C(C)[C@]1(O)C[C@@H](O)[C@@](C)(O)[C@H]21`, the IC50 in series [1] was found to be 27.9 µM.

With `C=C1C(=O)O[C@H]2[C@H]1[C@@H](OC(=O)CC(C)C)CC(C)=C1C[C@H]3O[C@@]3(C)[C@@H]12`, in series [1], the IC50 was 16.9 µM.

For the molecule `C=C1C(=O)O[C@H]2[C@H]1CC[C@@](C)(O)[C@]13C=C[C@@](C)([C@H]21)[C@@]1(C3)C(=O)C[C@]2(C(C)C)C[C@@H]21`, the IC50 in series [1] stood at 26.5 µM.

These data come from ChEMBL document CHEMBL5126665, “A Dimerosesquiterpene and Sesquiterpene Lactones from Artemisia argyi Inhibiting Oncogenic PI3K/AKT Signaling in Melanoma Cells” (J Nat Prod, 2022).
